Legend:
Assay in all cases: Post-emergence herbicidal action against harmful plants (greenhouse)
Assay type in all cases: in vivo
[1] = test system: Setaria viridis (SETVI)
Experimental: (§1) Seeds of monocotyledonous and dicotyledonous weed and crop plants are laid out in sandy loam soil in wood-fibre pots, covered with soil and cultivated in a greenhouse under good growth conditions. 2 to 3 weeks after sowing, the test plants are treated at the one-leaf stage. The compounds of the invention, formulated in the form of wettable powders (WP) or as emulsion concentrates (EC), are then sprayed onto the green parts of the plants in the form of an aqueous suspension or emulsion at a water application rate equivalent to 600 to 800 l/ha, with addition of 0.2% wetting agent. After the test plants have been […], the action of the preparations is assessed visually in comparison to untreated controls (herbicidal action in percent (%): 100% activity=the plants have died, 0% activity=like control plants). […] The tables below illustrate, in an illustrative manner, the post-emergence herbicidal action of the compounds of the invention, the herbicidal activity being stated in percent.
(§2) In the tables that follow, the abbreviations mean the following: • E: means the synergism value to be expected according to the Colby formula. • Δ SYN: means the difference between the actual and expected synergism value. • DAT: means days after treatment.

[2] = test system: Emex australis (EMEAU)
Experimental: (§3) Seeds of monocotyledonous and dicotyledonous weed and crop plants are laid out in sandy loam soil in wood-fibre pots, covered with soil and cultivated in a greenhouse under good growth conditions. 2 to 3 weeks after sowing, the test plants are treated at the one-leaf stage. The compounds of the invention, formulated in the form of wettable powders (WP) or as emulsion concentrates (EC), are then sprayed onto the green parts of the plants in the form of an aqueous suspension or emulsion at a water application rate equivalent to 600 to 800 l/ha, with addition of 0.2% wetting agent. After the test plants have been left to stand in the greenhouse under optimal growth conditions for about 3 weeks, the action of the preparations is assessed visually in comparison to untreated controls (herbicidal action in percent (%): 100% activity=the plants have died, 0% activity=like control plants). […] The tables below illustrate, in an illustrative manner, the post-emergence herbicidal action of the compounds of the invention, the herbicidal activity being stated in percent.
as §2

[3] = test system: Euphorbia heterophylla (EPHHL); conditions: EPHHL 21 DAT
Experimental: as §3, §2

[4] = test system: Cyperus iria (CYPIR)
Experimental: as §1, §2

[5] = test system: Solanum nigrum (SOLNI)
Experimental: as §1, §2

[6] = test system: Brachiaria platyphylla (BRAPP)
Experimental: as §3, §2

[7] = test system: Sorghum halepense (SORHA)
Experimental: as §3, §2

[8] = test system: Xanthium strumarium (XANST); conditions: application rate 1 g a.i./ha
[9] = test system: Abutilon theophrasti (ABUTH)
Experimental: as §1, §2

[10] = test system: Pharbitis purpurea (PHBPU)
[11] = test system: Polygonum convolvulus (POLCO)
[12] = test system: Erigeron bonariensis (ERIBO)
Experimental: as §1, §2

[13] = application rate 0.25 g a.i./ha

SMILES: CCOC(=O)C1(C)CC(c2cc(-n3c(=O)cc(C(F)(F)F)n(C)c3=O)c(F)cc2Cl)=NO1 (stereo not shown) [P4, ethyl 3-{2-chloro-4-fluoro-5-[3-methyl-2,6-dioxo-4-(trifluoromethyl)-3,6-dihydropyrimidin-1(2H)-yl]phenyl}-5-methyl-4,5-dihydro-1,2-oxazole-5-carboxylate]
- Herbicidal efficacy ([1]; SETVI 10 DAT, 1 g a.i./ha): 88%
- Herbicidal efficacy ([1]; SETVI 21 DAT, 1 g a.i./ha): 80%
- Herbicidal efficacy ([2]; EMEAU 21 DAT, 1 g a.i./ha): 70%
- Herbicidal efficacy ([3]; 1 g a.i./ha): 80%

SMILES: COC(=O)CCNC(=O)C(C)Sc1cc(-n2c(=O)cc(C(F)(F)F)n(C)c2=O)c(F)cc1Cl (stereo not shown) [tiafenacil]
- Herbicidal efficacy ([4]; CYPIR 21 DAT, 0.25 g a.i./ha): 88%
- Herbicidal efficacy [%] against SOLNI 10 DAT ([5]; application rate 1 g a.i./ha): 88%
- Herbicidal efficacy [%] against SOLNI 21 DAT ([5]; application rate 1 g a.i./ha): 60%
- Herbicidal efficacy ([6]; BRAPP 21 DAT, 1 g a.i./ha): 40%
- Herbicidal efficacy [%] against SORHA 21 DAT ([7]; application rate 1 g a.i./ha): 85%
- Herbicidal efficacy [%] against XANST 10 DAT ([8]; 10 DAT): 88%
- Herbicidal efficacy [%] against XANST 21 DAT ([8]; 21 DAT): 85%

SMILES: C#CCN1C(=O)C(F)(F)Oc2cc(F)c(-n3c(=O)n(C)c(=S)n(C)c3=O)cc21 [trifludimoxazin]
- Herbicidal efficacy ([9]; ABUTH 10 DAT, 0.25 g a.i./ha): 88%
- Herbicidal efficacy ([9]; ABUTH 10 DAT, 1 g a.i./ha): 85%
- Herbicidal efficacy ([9]; ABUTH 21 DAT, 0.25 g a.i./ha): 80%
- Herbicidal efficacy ([9]; ABUTH 21 DAT, 1 g a.i./ha): 75%
- Herbicidal efficacy ([1]; SETVI 10 DAT, 0.25 g a.i./ha): 85%
- Herbicidal efficacy ([1]; SETVI 21 DAT, 0.25 g a.i./ha): 70%
- Herbicidal efficacy [%] against SOLNI 10 DAT ([5]; application rate 1 g a.i./ha): 88%
- Herbicidal efficacy [%] against SOLNI 21 DAT ([5]; application rate 1 g a.i./ha): 60%
- Herbicidal efficacy ([6]; BRAPP 10 DAT, 1 g a.i./ha): 80%
- Herbicidal efficacy ([2]; EMEAU 21 DAT, 1 g a.i./ha): 85%
- Herbicidal efficacy ([3]; 0.25 g a.i./ha): 88%
- Herbicidal efficacy [%] against SORHA 10 DAT [7, 13]: 70%
- Herbicidal efficacy [%] against SORHA 21 DAT [7, 13]: 40%
- Herbicidal efficacy [%] against SORHA 10 DAT ([7]; application rate 1 g a.i./ha): 85%
- Herbicidal efficacy [%] against SORHA 21 DAT ([7]; application rate 1 g a.i./ha): 70%
- Herbicidal efficacy ([10]; PHBPU 21 DAT, 1 g a.i./ha): 80%

SMILES: COc1c(Cl)ccc(-c2nc(C(=O)O)c(Cl)c(N)c2F)c1F [florpyrauxifen]
- Herbicidal efficacy ([9]; ABUTH 21 DAT, 0.3 g a.i./ha): 90%
- Herbicidal efficacy ([1]; SETVI 10 DAT, 0.3 g a.i./ha): 30%
- Herbicidal efficacy ([1]; SETVI 21 DAT, 0.3 g a.i./ha): 40%
- Herbicidal efficacy ([6]; BRAPP 10 DAT, 0.3 g a.i./ha): 75%
- Herbicidal efficacy ([6]; BRAPP 21 DAT, 0.3 g a.i./ha): 60%
- Herbicidal efficacy ([2]; EMEAU 21 DAT, 1.2 g a.i./ha): 75%
- Herbicidal efficacy ([3]; 0.3 g a.i./ha): 90%
- Herbicidal efficacy [%] against SORHA 10 DAT ([7]; application rate 0.3 g a.i./ha): 10%
- Herbicidal efficacy ([11]; POLCO 10 DAT, 1.2 g a.i./ha): 90%
- Herbicidal efficacy ([11]; POLCO 21 DAT, 1.2 g a.i./ha): 90%

SMILES: CN1C[C@H](c2cccc(C(F)(F)F)c2)[C@@H](C(=O)Nc2ccccc2F)C1=O [tetflupyrolimet]
- Herbicidal efficacy ([9]; ABUTH 10 DAT, 400 g a.i./ha): 0%
- Herbicidal efficacy ([9]; ABUTH 21 DAT, 400 g a.i./ha): 0%
- Herbicidal efficacy ([4]; CYPIR 10 DAT, 400 g a.i./ha): 0%
- Herbicidal efficacy ([4]; CYPIR 21 DAT, 400 g a.i./ha): 0%
- Herbicidal efficacy [%] against SOLNI 10 DAT ([5]; application rate 400 g a.i./ha): 10%
- Herbicidal efficacy [%] against SOLNI 21 DAT ([5]; application rate 400 g a.i./ha): 0%
- Herbicidal efficacy ([6]; BRAPP 21 DAT, 400 g a.i./ha): 70%
- Herbicidal efficacy [%] against SORHA 10 DAT ([7]; application rate 100 g a.i./ha): 10%
- Herbicidal efficacy [%] against SORHA 21 DAT ([7]; application rate 100 g a.i./ha): 0%
- Herbicidal efficacy ([11]; POLCO 10 DAT, 400 g a.i./ha): 10%
- Herbicidal efficacy ([11]; POLCO 21 DAT, 100 g a.i./ha): 0%
- Herbicidal efficacy ([11]; POLCO 21 DAT, 400 g a.i./ha): 0%

SMILES: Nc1c(F)c(-c2ccc3cc[nH]c3c2F)nc(C(=O)O)c1Cl [P3, 4-amino-3-chloro-5-fluoro-6-(7-fluoro-1H-indol-6-yl)pyridine-2-carboxylic acid]
- Herbicidal efficacy ([9]; ABUTH 21 DAT, 0.3 g a.i./ha): 60%
- Herbicidal efficacy ([9]; ABUTH 21 DAT, 1.2 g a.i./ha): 60%
- Herbicidal efficacy ([1]; SETVI 21 DAT, 0.3 g a.i./ha): 70%
- Herbicidal efficacy ([5]; SOLNI 21 DAT, 1.2 g a.i./ha): 85%
- Herbicidal efficacy ([6]; BRAPP 10 DAT, 0.3 g a.i./ha): 70%
- Herbicidal efficacy ([6]; BRAPP 21 DAT, 0.3 g a.i./ha): 60%
- Herbicidal efficacy ([6]; BRAPP 21 DAT, 1.2 g a.i./ha): 75%
- Herbicidal efficacy ([2]; EMEAU 21 DAT, 1.2 g a.i./ha): 70%
- Herbicidal efficacy [%] against SORHA 10 DAT ([7]; application rate 0.3 g a.i./ha): 30%
- Herbicidal efficacy [%] against SORHA 21 DAT ([7]; application rate 0.3 g a.i./ha): 10%
- Herbicidal efficacy [%] against SORHA 10 DAT ([7]; application rate 1.2 g a.i./ha): 60%
- Herbicidal efficacy [%] against SORHA 21 DAT ([7]; application rate 1.2 g a.i./ha): 30%

SMILES: FC(F)c1cc(-c2c(Cl)cccc2Oc2ncc(Cl)cn2)on1 [rimisoxafen]
- Herbicidal efficacy ([9]; ABUTH 10 DAT, 20 g a.i./ha): 88%
- Herbicidal efficacy ([9]; ABUTH 21 DAT, 20 g a.i./ha): 40%
- Herbicidal efficacy ([4]; CYPIR 21 DAT, 20 g a.i./ha): 88%
- Herbicidal efficacy ([12]; ERIBO 21 DAT, 20 g a.i./ha): 10%
- Herbicidal efficacy ([1]; SETVI 21 DAT, 20 g a.i./ha): 30%
- Herbicidal efficacy [%] against SOLNI 10 DAT ([5]; application rate 80 g a.i./ha): 88%
- Herbicidal efficacy [%] against SOLNI 21 DAT ([5]; application rate 80 g a.i./ha): 80%
- Herbicidal efficacy ([6]; BRAPP 10 DAT, 20 g a.i./ha): 30%
- Herbicidal efficacy ([6]; BRAPP 21 DAT, 20 g a.i./ha): 20%
- Herbicidal efficacy ([2]; EMEAU 10 DAT, 80 g a.i./ha): 88%
- Herbicidal efficacy ([2]; EMEAU 21 DAT, 80 g a.i./ha): 80%
- Herbicidal efficacy [%] against SORHA 10 DAT ([7]; application rate 20 g a.i./ha): 10%
- Herbicidal efficacy [%] against SORHA 21 DAT ([7]; application rate 20 g a.i./ha): 10%
- Herbicidal efficacy ([10]; PHBPU 10 DAT, 20 g a.i./ha): 30%
- Herbicidal efficacy ([10]; PHBPU 21 DAT, 20 g a.i./ha): 20%
- Herbicidal efficacy ([11]; POLCO 21 DAT, 20 g a.i./ha): 60%
- Herbicidal efficacy ([11]; POLCO 21 DAT, 80 g a.i./ha): 88%

SMILES: COc1ccc(-n2nc(C)cc(C(=O)C3C(=O)CCCC3=O)c2=O)cc1OC [dioxopyritrione]
- Herbicidal efficacy ([9]; ABUTH 21 DAT, 10 g a.i./ha): 80%
- Herbicidal efficacy ([12]; ERIBO 10 DAT, 10 g a.i./ha): 90%
- Herbicidal efficacy ([12]; ERIBO 21 DAT, 10 g a.i./ha): 88%
- Herbicidal efficacy ([1]; SETVI 10 DAT, 2.5 g a.i./ha): 10%
- Herbicidal efficacy ([1]; SETVI 10 DAT, 10 g a.i./ha): 20%
- Herbicidal efficacy ([1]; SETVI 21 DAT, 2.5 g a.i./ha): 10%
- Herbicidal efficacy ([1]; SETVI 21 DAT, 10 g a.i./ha): 20%
- Herbicidal efficacy ([6]; BRAPP 10 DAT, 2.5 g a.i./ha): 40%
- Herbicidal efficacy ([6]; BRAPP 10 DAT, 10 g a.i./ha): 70%
- Herbicidal efficacy ([6]; BRAPP 21 DAT, 2.5 g a.i./ha): 20%
- Herbicidal efficacy ([6]; BRAPP 21 DAT, 10 g a.i./ha): 30%
- Herbicidal efficacy [%] against SORHA 10 DAT ([7]; application rate 2.5 g a.i./ha): 20%
- Herbicidal efficacy [%] against SORHA 21 DAT ([7]; application rate 2.5 g a.i./ha): 0%
- Herbicidal efficacy [%] against SORHA 10 DAT ([7]; application rate 10 g a.i./ha): 30%
- Herbicidal efficacy [%] against SORHA 21 DAT ([7]; application rate 10 g a.i./ha): 10%
- Herbicidal efficacy ([10]; PHBPU 21 DAT, 2.5 g a.i./ha): 20%
- Herbicidal efficacy ([11]; POLCO 10 DAT, 2.5 g a.i./ha): 80%
- Herbicidal efficacy ([11]; POLCO 10 DAT, 10 g a.i./ha): 80%
- Herbicidal efficacy ([11]; POLCO 21 DAT, 10 g a.i./ha): 70%

Reference: patent US20260068885A1, “HERBICIDAL COMPOSITIONS” (BAYER AKTIENGESELLSCHAFT, priority 2022, published 2026)
